In one assay the test system is rats. The conditions noted are these: cited from earlier work.
The subject of assay [1] is Long-Evans rats. Nature of the assay: Ethanol (10% v/v) vs. water self-administration after infusion in the PVN, sucrose-faded rats with long-term ethanol history. Format: in vivo, rat. The source says:
The effectiveness of known NPY receptor antagonists and NPY Y1-selective or Y5selective receptor antagonists in reducing craving for alcohol and reducing self-administration of alcohol can be tested in experimental animal models. Briefly, Long-Evans rats are conditioned to the laboratory environment and trained to self-administer concurrent ethanol (10% v/v) vs. water using a sucrose-fading procedure (H. H. Samson, Alcohol Clin. Exp. Res., 1986, 10:436442) as described by Hodge et al. (Alcohol, 1993, 10:191-196). Stereotaxic surgery is performed to implant injector guide cannulae aimed at the PVN. Microinjections of test compounds are given, with and without concomitant injection of NPY, into the PVN of the conditioned rats, which are then immediately given the opportunity to self-administer either water or ethanol (10% v/v). The volume of ethanol and water consumed are measured. Ethanol intake is converted from milliliters consumed to gram/kilogram body weight. Relative ethanol intake (preference) is calculated as […] of ethanol consumed divided by total fluid intake (ethanol+water […]). Drug dose effects are analyzed by one-way repeated measures analysis of variance (ANOVA). Post-hoc comparisons between drug doses and vehicle control are conducted using a paired t-test or Dunnett's t-test where appropriate (SigmaStat, Jandel, San Rafael, Calif.).
Animals. Thirty-six male Long-Evans rats (Harlan, Indianapolis, Ind.) were housed individually in Plexiglas cages. Access to water was restricted during the first day of behavioral training, but was continuously available for the remainder of the experiment. Food was always available in the home cage. In experimental chambers, ethanol (10% v/v) and water were available concurrently during daily (M-F) sessions. The animal colony room was maintained on a 12L:12D cycle with the lights on at 06:30. Experimental sessions were run during the light portion of the cycle. All experimental procedures were conducted under institutional and NIH guidelines.
Apparatus. Experimental sessions were conducted in Plexiglas chambers (27×37×21 cm) located in sound-attenuating cubicles (MED Associates, model ENV 016M, Lafayette, Ind.). Chambers were equipped with exhaust fans that masked external noise. The right wall of each chamber contained two 50-ml drinking bottles. Drug solutions were administered bilaterally through stainless steel injectors (Plastics One, Roanoke, Va.), which were connected via plastic tubing to two 1.0 μl syringes (Hamilton, Reno, Nev.). Syringes were mounted on a micro-infusion pump (Harvard Apparatus, Model 22, Natick, Mass.) set to deliver 0.5 μl/min/syringes.
Self-administration procedures. After 2 weeks of adaptation to laboratory housing conditions, fluid access was restricted to 1-h per day (for 2 days only) and two groups of rats (n=12 per group) were trained to drink from the bottles in the experimental chambers by overnight access to sucrose (10% w/v) vs. water during one overnight session. Daily 1 hour sessions were then conducted with sucrose (10% w/v) vs. water available concurrently. The location (i.e., left or right side of the chamber) of the sucrose and water solutions was alternated daily. When sucrose and water intake patterns stabilized, the rats were trained to self-administer concurrent ethanol (10% v/v) vs. water using a sucrose-fading procedure (H. H. Samson, Alcohol Clin. Exp. Res., 1986, 10:436-442) as previously described (e.g., Hodge et al., 1993). Briefly, ethanol was gradually added to the sucrose solution and then sucrose was faded out of the solution until rats were self-administering 10% ethanol vs. water. During the 2-month sucrose-fading procedure, the location of the ethanol/sucrose solution and water were alternated daily.

Assay [2] deals with rats trained to self-administer ethanol vs. water. In words: Microinjection in the central nucleus of the amygdala (CeA), ethanol vs. water self-administration. Format: in vivo, rat. The protocol: FIG. 4 depicts a dose response curve showing the effects the NPY-Y1 antagonist BIBP 3226 in the central nucleus of the Amygdala.
To further elucidate the role of NPY receptors in alcohol-seeking behavior, the NPY-Y1 […] BIBP 3226 was injected in the central nucleus of the amygdala (CeA) of rats trained to self-administer ethanol vs. water as described (Kelley et al., 2001 Peptides 22: 515-522). The CeA was chosen as an additional test site because, in addition to the hypothalamus, this brain region contains significant numbers of NPY receptors.

Another assay addresses T1, Y1 receptor (Homo sapiens, UniProt P25929).
T1 sequence (P25929 1-384): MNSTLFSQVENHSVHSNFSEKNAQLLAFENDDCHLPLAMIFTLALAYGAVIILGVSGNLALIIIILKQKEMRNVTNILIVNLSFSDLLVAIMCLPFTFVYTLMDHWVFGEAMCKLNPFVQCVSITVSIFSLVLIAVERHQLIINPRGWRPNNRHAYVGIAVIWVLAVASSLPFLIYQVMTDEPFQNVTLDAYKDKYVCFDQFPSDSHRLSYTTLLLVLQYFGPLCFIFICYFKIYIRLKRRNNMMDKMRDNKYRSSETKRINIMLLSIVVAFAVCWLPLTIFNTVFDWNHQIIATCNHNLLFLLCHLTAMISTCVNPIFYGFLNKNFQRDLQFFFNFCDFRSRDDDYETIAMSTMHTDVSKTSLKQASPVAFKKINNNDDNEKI
Conditions: cited from earlier work.

Assay [3] concerns Long-Evans rats. Nature of the assay: Ethanol vs. water intake after NPY infusion in the PVN, control rats with no long-term history of ethanol self-administration. Format: in vivo, rat. Conditions: for ETOH Intake / ETOH Preference (%) / water intake: mean±SEM. The source says: Since NPY has potent effects on consummatory behavior, it is possible that NPY infusions in the PVN could alter ethanol intake via mechanisms that are unrelated to experience with the pharmacological effects of ethanol. […] Experimentally naive rats were allowed one week to adapt to the laboratory. They were then implanted with bilateral guide cannulae aimed at the PVN. Experimental sessions began one week after surgery to allow for recovery. During daily 60-min sessions, rats were placed in the self-administration chambers with concurrent ethanol (10% v/v) vs. water available. Baseline levels of ethanol and water intake were measured for one week. Microinjection procedures were then conducted.
(§1) Microinjection procedure. When ethanol and water intake stabilized again, microinjections were conducted once per week. Unanesthetized rats were placed in plastic containers (15×30×15 cm deep) to reduce movement. Obturators were removed and sterile 33-gauge injectors were inserted bilaterally to a depth 1 mm beyond the end of the guide cannulae. Drug solutions were infused bilaterally in distilled water vehicle in a total volume of 1 μl (0.5 μl/side) over a 1-min period. The injectors were left in place for an additional 30-sec period to allow drug diffusion. Precise flow of the solutions was verified before and after each injection to ensure compound delivery. Self-administration sessions began immediately after microinjections. Sterile obturators were reinserted at the end of the behavioral sessions. When co-administered, D-NPY or BIBP 3226 was infused 15-min prior to NPY. Vehicle injections were also performed to control for local pressure or osmotic changes caused by infusions. During one month prior to drug testing, the animals were handled and placed in the plastic tubs to minimize the effects of procedural changes on subsequent drug effects. The data from these sessions were not used in the analysis. After completion of the microinjection protocol, the rats were sacrificed and their brains were removed for histological verification of injection sites.
Data analysis and statistics. Volume of ethanol and water consumed was measured to the nearest 0.5 milliliter at the end of each 1-h session. Ethanol intake was converted from mls consumed to g/kg body weight. Relative ethanol intake (preference) was calculated as mls of ethanol consumed divided by total fluid intake (ethanol+water mils). Drug dose effects were analyzed by one-way repeated measures analysis of variance (ANOVA). Post-hoc comparisons between drug doses and vehicle control were conducted using paired t-test or Dunnett's t-test where appropriate (SigmaStat, Jandel, San Rafael, Calif.).
Data values are presented as mean±SEM.

Assay [4] concerns Long-Evans rats. In words: Body weight, food intake and water intake in the home cage 24 hours after PVN infusion. In kind it is in vivo, rat. How it is done: FIG. 2 depicts the effects of NPY or NPY+D-NPY infused in the PVN on (A) body weight, (B) food intake, and (C) water intake measured in the home cage 24 hours after infusion. Drug doses were administered in random order. Data are plotted as Mean±SEM of 11 rats.
as §1

Where [5] appears, read: BIBP 3226 (10.6 μm) alone in the PVN.
The mark [6] stands for this setting: any dose of NPY tested, rats without long-term ethanol history.
[7] abbreviates: NPY in the PVN, 24 hours after infusion, ethanol-experienced rats.
[8] abbreviates: NPY, sucrose-inexperienced animals.
Setting [9] is: D-NPY co-administered with NPY (10 fmol) in the PVN.

Entries after “also recorded” stand apart in the source; their conditions may differ.

Turning to `N=C(N)NCCC[C@@H](NC(=O)C(c1ccccc1)c1ccccc1)C(=O)NCc1ccc(CNC(N)=O)cc1.O=C(O)C(F)(F)F` [BIBO 3304, (R)-N-[[4-(aminocarbonylaminomethyl)-phenyl]methyl]-N^2-(diphenylacetyl)arginine amide trifluoroacetate], the “food intake induced by application of NPY or by fasting” value in the assay on rats (rats) is reported as “significantly inhibits food intake”.
Regarding `N=C(N)NCCC[C@@H](NC(=O)C(c1ccccc1)c1ccccc1)C(=O)NCc1ccc(O)cc1` [BIBP 3226, (R)-N^2-(diphenylacetyl)-N-[(4-hydroxyphenyl)methyl]-D-arginine amide], in the assay on Long-Evans rats [1] (setting [5]), the ethanol intake result was “no significant effect”, the ethanol preference result is “no significant effect” and the water intake result is “no significant effect”. Moreover, the “NPY-induced increase in ethanol intake” value in the assay on Long-Evans rats [1] (BIBP 3226 co-administered with NPY (10 fmol) in the PVN) is reported as “completely blocked”. For the same molecule, the “dose of self-administered ethanol” value in assay [2] (BIBP 3226 in the CeA, highest dose, 1-hour sessions, vs vehicle, p<0.05) is “reduced ethanol self-administration after infusion of the highest dose; also recorded: significantly reduced alcohol self-administration; also recorded: significantly reduced the dose of alcohol that was self-administered”. In addition, the water intake entry in assay [2] (BIBP 3226 injected in the CeA) is listed as “no effect on water intake”.
“NPY 2-36: an N-terminal truncated NPY fragment”: in the assay with Y1 receptor, the “affinity for the Y1 receptor subtype” value was “low potency”.
Regarding Neuropeptide Y [NPY], in the assay on Long-Evans rats [1] (NPY (10 fmol) in the PVN, BIBP 3226 group of 9 rats), the ethanol intake result is “significantly increased ethanol intake above control values”. The “water intake during experimental sessions” value in the assay with Long-Evans rats [1] (NPY infused in the PVN) is “decreased water intake in a dose-dependent manner; also recorded: significantly decreased water intake”. For the same molecule, the ethanol intake entry in the assay with Long-Evans rats [1] (NPY infused in the PVN, all doses, 1-hour session, vs vehicle control) is given as “increases alcohol self-administration; also recorded: significantly increased ethanol intake”. For the same molecule, the ethanol preference entry in the assay with Long-Evans rats [1] (NPY infused in the PVN, dose-dependent, 1-hour session) is listed as “significantly increased ethanol preference”. Also, the “ethanol as share of fluid consumption during daily sessions” value in the assay with Long-Evans rats [1] (two highest doses of NPY in the PVN) was “greater than 90%”. In addition, in the assay on Long-Evans rats [3] (NPY 10.0 fmol in the PVN), the “ETOH Intake” value was determined as 0.0330 ± 0.024 g/kg/h, the “ETOH Preference (%)” value turned out to be 20.0 ± 13.333% and the “water intake” value was 0 ± 0 mL/h. For the same molecule, in the assay with Long-Evans rats [3] (NPY 100.0 fmol in the PVN), the “ETOH Intake” value was found to be 0.0550 ± 0.03 g/kg/h, the “ETOH Preference (%)” value was 30 ± 15.275% and the “water intake” value was 0.3 ± 0.133 mL/h. Besides, in the assay on Long-Evans rats [3] (setting [6]), the “change in ethanol intake” value is listed as “no dose of NPY tested produced a change; also recorded: no effect on ethanol intake”, the “change in ethanol preference” value is recorded as “no dose of NPY tested produced a change” and the “change in water intake” value is listed as “no dose of NPY tested produced a change”. In addition, in the assay on Long-Evans rats [4] (setting [7]), the “body weight in the home cage” value is reported as “no effect” and the “food consumption in the home cage” value is “no effect”. The “water intake in the home cage” value in the assay with Long-Evans rats [4] (NPY in the PVN, 24 hours after infusion, ethanol-experienced rats, p<0.05) is given as “reduced water intake in the home cage; also recorded: small but significant reductions”. In the assay on Long-Evans rats [4] (setting [8]), the “body weight in the home cage” value was “no effect”, the “food intake in the home cage” value was “no effect” and the “water intake in the home cage” value was “no effect”.
In the case of “[D-Tyr^27,36,D-Thr^32] Neuropeptide Y (27-36) [D-NPY]”, the ethanol intake result with Long-Evans rats [1] (D-NPY alone infused in the PVN) is “partial, but significant, decrease in ethanol intake”. In the assay with Long-Evans rats [1] (setting [9]), the “NPY-induced decrease in water intake during sessions” value is “completely blocked the effects of NPY on ethanol and water intake; also recorded: significantly reversed NPY-induced decreases in water intake”; the “NPY-induced increase in ethanol intake” value is “completely blocked the effects of NPY on ethanol and water intake”. Besides, in the assay with Long-Evans rats [1] (D-NPY co-administered with NPY (10 fmol) in the PVN, P<0.09), the “NPY-induced increase in ethanol preference” value was “did not significantly alter”. Further, the “body weight in the home cage” value with Long-Evans rats [4] (D-NPY alone or in combination with NPY in the PVN) is given as “produced no effect on body weight”.
On to “[Pro^34]-NPY: Y1 agonist that stimulates feeding”, for which the “food intake relative to that seen following the injection of NPY” value with rats (rat, in vivo) is reported as “approximately 50%”.
